According to patent US9701603B2, “Strepsesquitriol, preparation method thereof, and application thereof” (SOUTH CHINA SEA INSTITUTE OF OCEANOLOGY, CHINESE ACADEMY OF …, priority 2013, dated 2017):

Legend:
[1] = system: LPS-induced TNFα; assay: Inhibition of the formation of LPS-induced TNFα in RAW264.7 macrophages; format: cell-based
Source text: As for determination of inhibitory activity of Strepsesquitriol on the formation of lipopolysaccharide (LPS)-induced TNFα in RAW264.7 macrophages, please refer to the references (Fan, S. Y.; Zeng, H. W.; Pei, Y. H.; Li. L.; Ye, J.; Pan, Y. X.; Zhang, J. G.; Yuan, X.; Zhang, W. D. The anti-inflammatory activities of an extract and compounds isolated from Platycladus orientalis (Linnaeus) Franco in vitro and ex vivo J Ethnopharmacol 2012, 141, 647-652) ENREF 3.

[2] = system: RAW264.7 cells; assay: Cytotoxic activity to RAW264.7 cells; format: cell-based; conditions: concentration 100 μM

Row | SMILES | Inhibition rate (%) ([1]; concentration 100 μM) | inhibition at 3.6 µM ([1]; Mus musculus, concentration 3.6 μM, read-out: Inhibition rate (%)) [%] | inhibition at 11 µM ([1]; Mus musculus, concentration 11.0 μM, read-out: Inhibition rate (%)) [%] | inhibition at 33 µM ([1]; Mus musculus, concentration 33.0 μM, read-out: Inhibition rate (%)) [%] | inhibition at 100 µM ([1]; Mus musculus, concentration 100 μM, read-out: Inhibition rate (%)) [%] | cytotoxic activity [2]
1 | Cc1ccc(S(=O)(=O)N[C@@H](Cc2ccccc2)C(=O)CCl)cc1 [TPCK, N-p-tosyl-1-phenylalanine chloromethyl ketone, reference compound] | 60.6 |  |  |  |  | 
2 | C[C@H]1C[C@@H](O)[C@]23C[C@H](CC[C@]12O)C(C)(C)[C@]3(C)O [Strepsesquitriol A, (1R,2R,4S,5S,8S,10S)-4,9,9,10-tetramethyl-2,5,10-trihydroxyltricyclo[6.2.1.0^1,5]undecane] |  | 3.4 ± 2.8 | 8 ± 1.6 | 30.6 ± 1.4 | 35.4 | no cytotoxic activity
